Common to all, as to assay type: cell-based
Assay [1] concerns human non small cell lung cancer (NCI-H460). The assay can be described thus: Inhibition of tumour cell proliferation in vitro ([3H]thymidine incorporation), NCI-H460. Particulars: NCI-H460, 24 hours. The protocol:
(§1) The inhibition of tumour cell proliferation was studied using different types of human cancer cell lines. The cell lines under investigation were small cell lung carcinoma (NYH), non small cell lung carcinoma (NCI-H460), and breast cancer (MCF-7) using the following general procedure:
(§2) The cells were cultured in vitro for 24 hours in the presence of the compound under investigation. DNA synthesis was measured by incorporation of [3H]thymidine, and the median inhibitory concentrations (IC50) of the compounds were calculated.

The subject of assay [2] is human breast cancer (MCF-7). Description: Inhibition of tumour cell proliferation in vitro ([3H]thymidine incorporation), MCF-7. To be noted: MCF7, MCF-7, 24 hours. The protocol: as §1, §2
For assay [3], the system named is human small cell lung carcinoma (NYH). The assay can be described thus: Inhibition of tumour cell proliferation in vitro ([3H]thymidine incorporation), NYH. To be noted: 24 hours. The method, then:
as §1, §2

pIC50: −log10 of the molar value.

On to `N#CN=C(NCCCCCCCCCCCCNC(=NC#N)Nc1cccnc1)Nc1cccnc1` [Example No. 6, 1,12-Bis(N'-cyano-N"-3-pyridylguanidino)dodecane], for which the values for the pIC50 in assay [1], in assay [2] and in assay [3] were 7.19, 7.59 and 8.36, respectively.

As to `N#CN=C(NCCCCCCCCCCNC(=NC#N)Nc1ccncc1)Nc1ccncc1` [Example No. 8, 1,10-Bis(N'-cyano-N"-4-pyridylguanidino)decane], the pIC50 in assay [1] is 7.19; in assay [2], 8.18; in assay [3] it was 9.04.

On to `N#CN=C(NCCCCCCCCCCCCNC(=NC#N)Nc1ccncc1)Nc1ccncc1` [Example No. 14, 1,12-Bis(N'-cyano-N"-4-pyridylguanidino)dodecane], for which the pIC50 in assay [1] is 7.16; in assay [2], 7.89; in assay [3] it was 9.30.

(Values after US6300345A, “Cyanoguanidines as cell proliferation inhibitors” (Leo Pharmacuetical Products Ltd. A/S (L.o slashed.vens …, priority 1997, dated 2001).)
